Measured values as given in ChEMBL document CHEMBL4627384, “l-Thyroxin and the Nonclassical Thyroid Hormone TETRAC Are Potent Activators of PPARγ” (J Med Chem, 2020).
Activity calls are given as the source filed them. The rule behind the calls is not given here.

How the values were obtained:
[1] = target: T1, Peroxisome proliferator-activated receptor gamma (Homo sapiens) (UniProt P37231); test: Agonist activity at PPARgamma in human HepG2 cells with THRA knockdown assessed as induction of CD36 expression at 30 uM incubated for 8 hrs in by Western blot analysis; type: cell-based
T1 sequence (whole entry): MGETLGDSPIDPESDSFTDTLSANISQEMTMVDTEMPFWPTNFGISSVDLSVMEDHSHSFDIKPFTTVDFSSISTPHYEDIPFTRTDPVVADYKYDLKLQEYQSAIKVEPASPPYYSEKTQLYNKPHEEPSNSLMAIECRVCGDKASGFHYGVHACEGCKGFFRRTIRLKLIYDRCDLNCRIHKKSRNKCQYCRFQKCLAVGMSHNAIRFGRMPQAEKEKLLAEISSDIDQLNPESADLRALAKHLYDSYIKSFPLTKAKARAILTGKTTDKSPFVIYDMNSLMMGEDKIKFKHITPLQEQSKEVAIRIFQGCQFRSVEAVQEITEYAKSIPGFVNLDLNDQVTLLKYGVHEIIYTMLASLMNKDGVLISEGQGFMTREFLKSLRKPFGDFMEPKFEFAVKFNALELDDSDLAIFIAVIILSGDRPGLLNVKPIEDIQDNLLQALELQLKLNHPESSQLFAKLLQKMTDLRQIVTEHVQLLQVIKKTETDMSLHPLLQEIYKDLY

[2] = Drug metabolism in human HepG2 cells assessed as 2-(4-(4-hydroxy-3-iodophenoxy)-3,5-diiodophenyl)acetic acid formation at 10 uM incubated for 24 hrs by LC-MS analysis; type: ADME, cell-based; conditions: hepg2, 24 h
[3] = Drug metabolism in human HepG2 cells assessed as 2-(4-(4-hydroxy-3,5-diiodophenoxy)-3,5-diiodophenyl)acetic acid formation at 10 uM incubated for 24 hrs by LC-MS analysis; type: ADME, cell-based; conditions: hepg2, 24 h
[4] = target: T1, Peroxisome proliferator-activated receptor gamma (Homo sapiens); test: Agonist activity at PPARgamma in human HepG2 cells assessed as induction of CD36 mRNA expression at 10 to 30 uM incubated for 8 hrs by qPCR analysis; type: cell-based
[5] = target: T1, Peroxisome proliferator-activated receptor gamma (Homo sapiens); test: Agonist activity at recombinant human pFA-CMV fused PPARgamma LBD expressed in HEK293T cells transfected with pFR-luciferase plasmid and pRL-SV40 plasmid at 0.1 uM incubated for 14 to 16 hrs in presence of PPARgamma antagonist GW9662 by dual glo luciferase reporter gene assay; type: cell-based; conditions: HEK-293T
[6] = target: T2, Thyroid hormone receptor alpha (Homo sapiens, UniProt P10827); test: Agonist activity at THRalpha (unknown origin) incubated for 14 to 16 hrs by dual glo luciferase reporter gene assay
T2 sequence (P10827 whole entry): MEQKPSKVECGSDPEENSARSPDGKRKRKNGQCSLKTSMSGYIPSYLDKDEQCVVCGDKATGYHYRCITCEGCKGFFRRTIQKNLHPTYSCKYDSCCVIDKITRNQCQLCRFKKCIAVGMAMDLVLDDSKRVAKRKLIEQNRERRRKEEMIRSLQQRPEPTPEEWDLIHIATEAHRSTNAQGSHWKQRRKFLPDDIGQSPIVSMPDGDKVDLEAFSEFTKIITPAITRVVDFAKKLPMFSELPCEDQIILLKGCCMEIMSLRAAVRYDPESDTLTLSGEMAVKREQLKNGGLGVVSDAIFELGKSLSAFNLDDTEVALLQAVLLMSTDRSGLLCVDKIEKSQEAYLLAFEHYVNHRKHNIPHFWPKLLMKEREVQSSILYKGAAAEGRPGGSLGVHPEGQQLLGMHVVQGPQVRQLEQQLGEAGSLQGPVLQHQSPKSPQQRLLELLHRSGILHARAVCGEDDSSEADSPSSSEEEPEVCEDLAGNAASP

[7] = target: T1, Peroxisome proliferator-activated receptor gamma (Homo sapiens); test: Agonist activity at PPARgamma in human HepG2 cells with THRA knockdown assessed as induction of CD36 expression at 1 uM incubated for 8 hrs in by Western blot analysis; type: cell-based
[8] = target: T3, Peroxisome proliferator-activated receptor gamma (Mus musculus) (UniProt P37238); test: Agonist activity at PPARgamma in mouse 3T3L1 adipocytes assessed as induction of CD36 mRNA expression at 1 uM by qRT-PCR analysis; type: cell-based; conditions: 3T3-L1
T3 sequence (whole entry): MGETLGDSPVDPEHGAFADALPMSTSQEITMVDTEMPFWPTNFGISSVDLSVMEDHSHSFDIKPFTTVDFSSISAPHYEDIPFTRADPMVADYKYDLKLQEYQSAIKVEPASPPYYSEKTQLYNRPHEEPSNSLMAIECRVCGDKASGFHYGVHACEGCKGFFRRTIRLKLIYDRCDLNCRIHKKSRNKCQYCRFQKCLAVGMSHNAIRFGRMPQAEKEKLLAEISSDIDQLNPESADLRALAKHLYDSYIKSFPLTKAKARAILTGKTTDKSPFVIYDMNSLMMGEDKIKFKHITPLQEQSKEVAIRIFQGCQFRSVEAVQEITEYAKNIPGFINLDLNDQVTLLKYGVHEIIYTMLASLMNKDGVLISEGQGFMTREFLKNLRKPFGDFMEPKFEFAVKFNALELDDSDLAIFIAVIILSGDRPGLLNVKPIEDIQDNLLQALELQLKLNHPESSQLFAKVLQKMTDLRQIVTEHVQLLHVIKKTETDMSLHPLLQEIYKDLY

[9] = target: T1, Peroxisome proliferator-activated receptor gamma (Homo sapiens); test: Agonist activity at N-terminal GFP-fused PPARgamma LBD (unknown origin) assessed as biotin-labeled SRC-1 recruitment incubated for 2 hrs by HT-FRET assay
[10] = target: T3, Peroxisome proliferator-activated receptor gamma (Mus musculus); test: Agonist activity at PPARgamma in mouse 3T3L1 assessed as induction of adipocytes differentiation by Oil Red O staining based assay; type: cell-based; conditions: 3T3-L1
[11] = target: T1, Peroxisome proliferator-activated receptor gamma (Homo sapiens); test: Agonist activity at N-terminal GFP-fused PPARgamma LBD (unknown origin) assessed as biotin-labeled CBP recruitment incubated for 2 hrs by HT-FRET assay relative to rosiglitazone
[12] = target: T4, Hepatocyte nuclear factor 4-alpha (Homo sapiens) (UniProt P41235); test: Agonist activity at recombinant human pFA-CMV-fused HNF4alpha LBD expressed in HEK293T cells transfected with pFR-luciferase plasmid and pRL-SV40 plasmid at 0.001 to 0.3 uM incubated for 14 to 16 hrs by dual glo luciferase reporter gene assay; type: cell-based; conditions: HEK-293T
T4 sequence (whole entry): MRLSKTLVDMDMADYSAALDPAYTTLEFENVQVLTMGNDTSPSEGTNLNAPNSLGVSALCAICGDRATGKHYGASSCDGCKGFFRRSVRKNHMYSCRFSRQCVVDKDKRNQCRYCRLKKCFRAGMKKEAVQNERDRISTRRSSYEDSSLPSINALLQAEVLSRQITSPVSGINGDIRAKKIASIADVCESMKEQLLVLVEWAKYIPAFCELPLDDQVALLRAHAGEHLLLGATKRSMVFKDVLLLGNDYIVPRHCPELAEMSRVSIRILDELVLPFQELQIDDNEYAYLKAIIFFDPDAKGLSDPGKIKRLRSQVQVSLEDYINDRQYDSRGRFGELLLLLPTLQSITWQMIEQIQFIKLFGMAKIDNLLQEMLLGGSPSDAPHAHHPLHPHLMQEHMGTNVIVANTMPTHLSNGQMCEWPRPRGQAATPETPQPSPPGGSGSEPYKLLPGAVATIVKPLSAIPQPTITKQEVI

Activity [1] | Drug metabolism [2] | Drug metabolism [3] | Activity [4] | Activity [5] | EC50 [6] | Activity [7] | Activity [8] | Activity [9] | Activity [10] | Activity [11] | Activity [12] | Compound
Active | Metabolite_Notdetected | 44 ng | Active | – | – | – | – | – | – | – | – | N[C@@H](Cc1cc(I)c(Oc2cc(I)c(O)c(I)c2)c(I)c1)C(=O)O [LEVOTHYROXINE]
– | – | – | – | inactive | 20 nM | Active | Active | Active | Dose-dependent effect | Active | inactive | O=C(O)Cc1cc(I)c(Oc2cc(I)c(O)c(I)c2)c(I)c1 [TETRAC]
